Patent US11591336B2 (Relay Therapeutics, Inc., priority 2017, dated 2023)
Counter-ions that a name gives are not always drawn.

Target: SHP2 (Homo sapiens (Human), UniProt Q06124)
Assay: SHP2 Allosteric Inhibition Assay (DiFMUP prompt fluorescence)
Assay type: biochemical
Settings: 0.25 nM SHP2 activated with 0.5 μM peptide IRS1_pY1172(dPEG8)pY1222; substrate DiFMUP 100 μM; 25° C.

Sequence of SHP2 (Q06124 whole entry): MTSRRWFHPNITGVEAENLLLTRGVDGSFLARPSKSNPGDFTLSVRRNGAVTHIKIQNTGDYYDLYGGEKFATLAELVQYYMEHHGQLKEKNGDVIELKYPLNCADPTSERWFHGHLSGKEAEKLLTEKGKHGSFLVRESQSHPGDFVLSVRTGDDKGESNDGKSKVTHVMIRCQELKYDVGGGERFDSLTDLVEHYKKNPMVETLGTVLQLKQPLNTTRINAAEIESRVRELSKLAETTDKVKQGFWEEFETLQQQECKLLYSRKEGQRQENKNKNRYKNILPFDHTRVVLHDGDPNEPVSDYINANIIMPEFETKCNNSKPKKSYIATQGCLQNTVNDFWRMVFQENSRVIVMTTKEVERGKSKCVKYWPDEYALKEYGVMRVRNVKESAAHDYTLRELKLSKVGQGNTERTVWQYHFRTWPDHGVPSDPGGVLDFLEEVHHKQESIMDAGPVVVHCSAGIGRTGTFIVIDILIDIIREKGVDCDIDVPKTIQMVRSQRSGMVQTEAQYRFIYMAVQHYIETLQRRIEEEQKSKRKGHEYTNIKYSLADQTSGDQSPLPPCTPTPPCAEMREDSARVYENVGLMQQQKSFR

Q: How did the IC50 turn out when C[C@@H]1OCC2(CCN(c3cnc4c(N5CCCc6cc(-c7cnn(C)c7)ccc65)n[nH]c4n3)CC2)[C@@H]1N [Compound 365] was run?
A: < 1000 nM

Q: Which IC50 does the source give for CNC(=O)c1ccc2c(c1)N(C)CCN2c1n[nH]c2nc(N3CCC4(CC3)CO[C@@H](C)[C@H]4N)cnc12 [Compound 366, 1-{6-[(3S,4S)-4-amino-3-methyl-2-oxa-8-azaspiro[4.5]decan-8-yl]-1H-pyrazolo[3,4-b]pyrazin-3-yl}-N,4-dimethyl-1,2,3,4-tetrahydroquinoxaline-6-carboxamide] here?
A: < 1000 nM

Q: Which IC50 does the source give for C[C@@H]1OCC2(CCN(c3cnc4c(N5CCN(C)c6c5cccc6S(C)(=O)=O)n[nH]c4n3)CC2)[C@@H]1N [Compound 367] here?
A: < 1000 nM

Q: With CCS(=O)(=O)c1cccc2c1CCCN2c1n[nH]c2nc(N3CCC4(CC3)CO[C@@H](C)[C@H]4N)cnc12 [Compound 368] as the compound, how does the IC50 read?
A: < 1000 nM

Q: For C[C@@H]1OCC2(CCN(c3cnc4c(N5CCCc6c5cccc6P(C)(C)=O)n[nH]c4n3)CC2)[C@@H]1N [Compound 369], which IC50 is on record?
A: < 1000 nM

Q: Which IC50 does the source give for C[C@@H]1OCC2(CCN(c3cnc4c(N5CCCc6nc(-c7cnn(C8COC8)c7)ccc65)n[nH]c4n3)CC2)[C@@H]1N [Compound 372, (3S,4S)-3-methyl-8-(3-{6-[1-(oxetan-3-yl)-1H-pyrazol-4-yl]-1,2,3,4-tetrahydro-1,5-naphthyridin-1-yl}-1H-pyrazolo[3,4-b]pyrazin-6-yl)-2-oxa-8-azaspiro[4.5]decan-4-amine] here?
A: < 1000 nM

Q: With C[C@@H]1OCC2(CCN(c3cnc4c(N5CCCc6c5cccc6[N+](=O)[O-])n[nH]c4n3)CC2)[C@@H]1N [Compound 373] as the compound, how does the IC50 read?
A: < 1000 nM

Q: C[C@@H]1OCC2(CCN(c3cnc4c(N5CCCc6c5cccc6N(C)S(C)(=O)=O)n[nH]c4n3)CC2)[C@@H]1N [Compound 374] was tested. Which IC50 did it give?
A: < 1000 nM

Q: C[C@@H]1OCC2(CCN(c3cnc4c(N5CCCc6c(N)cccc65)n[nH]c4n3)CC2)[C@@H]1N [Compound 375, (3S,4S)-8-[3-(5-amino-1,2,3,4-tetrahydroquinolin-1-yl)-1H-pyrazolo[3,4-b]pyrazin-6-yl]-3-methyl-2-oxa-8-azaspiro[4.5]decan-4-amine] was tested. Which IC50 did it give?
A: < 1000 nM

Q: How did the IC50 turn out when CC(=O)Nc1cccc2c1CCCN2c1n[nH]c2nc(N3CCC4(CC3)CO[C@@H](C)[C@H]4N)cnc12 [Compound 376, N-(1-{6-[(3S,4S)-4-amino-3-methyl-2-oxa-8-azaspiro[4.5]decan-8-yl]-1H-pyrazolo[3,4-b]pyrazin-3-yl}-1,2,3,4-tetrahydroquinolin-5-yl)acetamide] was run?
A: < 1000 nM

Q: C[C@@H]1OCC2(CCN(c3cnc4c(N5CCN(C)c6nc(Cl)ccc65)n[nH]c4n3)CC2)[C@@H]1N [Compound 377] was tested. Which IC50 did it give?
A: < 1000 nM

Q: C[C@@H]1OCC2(CCN(c3cnc4c(N5CCCc6nc(O)ccc65)n[nH]c4n3)CC2)[C@@H]1N [Compound 378] was tested. Which IC50 did it give?
A: < 1000 nM

Q: For Cc1cccc2c1N(C1CC1)CCN2c1n[nH]c2nc(N3CCC4(CC3)CO[C@@H](C)[C@H]4N)cnc12 [Compound 379], which IC50 is on record?
A: < 1000 nM

Q: With C[C@@H]1OCC2(CCN(c3cnc4c(N5CCCc6nc(-c7cnoc7)ccc65)n[nH]c4n3)CC2)[C@@H]1N [Compound 380, (3S,4S)-3-methyl-8-{3-[6-(1,2-oxazol-4-yl)-1,2,3,4-tetrahydro-1,5-naphthyridin-1-yl]-1H-pyrazolo[3,4-b]pyrazin-6-yl}-2-oxa-8-azaspiro[4.5]decan-4-amine] as the compound, how does the IC50 read?
A: < 1000 nM

Q: How did the IC50 turn out when Cc1cnc(-c2ccc3c(n2)CCCN3c2n[nH]c3nc(N4CCC5(CC4)CO[C@@H](C)[C@H]5N)cnc23)s1 [Compound 382] was run?
A: < 1000 nM

Q: Which IC50 does the source give for C[C@@H]1OCC2(CCN(c3cnc4c(N5CCN(C)c6nc(C#N)ccc65)n[nH]c4n3)CC2)[C@@H]1N [Compound 383] here?
A: < 1000 nM

Q: Which IC50 does the source give for Cc1cccc2c1N(C)CCN2c1n[nH]c2nc(N3CCC4(CC3)CO[C@@H](C)[C@H]4N)cnc12 [Compound 384] here?
A: < 1000 nM

Q: Which IC50 does the source give for CC1Cc2ccccc2C(=O)N1c1n[nH]c2nc(N3CCC4(CC3)CO[C@@H](C)[C@H]4N)cnc12 (some centres unmarked) [Compound 385] here?
A: ≥ 10000 nM

Q: With C[C@@H]1OCC2(CCN(c3cnc4c(N5CCCc6c(C#N)cccc65)n[nH]c4n3)CC2)[C@@H]1N [Compound 386] as the compound, how does the IC50 read?
A: < 1000 nM

Q: With CC(C)N1CCN(c2n[nH]c3nc(N4CCC5(CC4)CO[C@@H](C)[C@H]5N)cnc23)c2cccnc21 [Compound 387] as the compound, how does the IC50 read?
A: < 1000 nM

Q: C[C@@H]1OCC2(CCN(c3cnc4c(N5CCCc6c5ccc(C#N)c6S(C)(=O)=O)n[nH]c4n3)CC2)[C@@H]1N [Compound 388] was tested. Which IC50 did it give?
A: 1000 to 10000 nM

Q: With Cc1nnc(-c2cccc3c2CCCN3c2n[nH]c3nc(N4CCC5(CC4)CO[C@@H](C)[C@H]5N)cnc23)o1 [Compound 389] as the compound, how does the IC50 read?
A: < 1000 nM

Q: How did the IC50 turn out when COCc1cccc2c1CCCN2c1n[nH]c2nc(N3CCC4(CC3)CO[C@@H](C)[C@H]4N)cnc12 [Compound 390] was run?
A: < 1000 nM

Q: COC(=O)N1CCN(c2n[nH]c3nc(N4CCC5(CC4)CO[C@@H](C)[C@H]5N)cnc23)c2ccccc21 [Compound 391] was tested. Which IC50 did it give?
A: < 1000 nM

Q: C[C@@H]1OCC2(CCN(c3cnc4c(N5CCCc6c5cccc6N5CCCS5(=O)=O)n[nH]c4n3)CC2)[C@@H]1N [Compound 392] was tested. Which IC50 did it give?
A: < 1000 nM

Q: How did the IC50 turn out when C[C@@H]1OCC2(CCN(c3cnc4c(N5CCCc6sccc65)n[nH]c4n3)CC2)[C@@H]1N [Compound 394] was run?
A: < 1000 nM

Q: For C[C@@H]1OCC2(CCN(c3cnc4c(N5CCN(C)c6cc(-c7ncco7)ccc65)n[nH]c4n3)CC2)[C@@H]1N [Compound 395], which IC50 is on record?
A: < 1000 nM

Q: C[C@@H]1OCC2(CCN(c3cnc4c(N5CCCc6nc(C7=CCCCC7)ccc65)n[nH]c4n3)CC2)[C@@H]1N [Compound 396, (3S,4S)-8-{3-[6-(cyclohex-1-en-1-yl)-1,2,3,4-tetrahydro-1,5-naphthyridin-1-yl]-1H-pyrazolo[3,4-b]pyrazin-6-yl}-3-methyl-2-oxa-8-azaspiro[4.5]decan-4-amine hydrochloride] was tested. Which IC50 did it give?
A: < 1000 nM

Q: C/C(=N/O)c1ccc2c(n1)CCCN2c1n[nH]c2nc(N3CCC4(CC3)CO[C@@H](C)[C@H]4N)cnc12 [Compound 397, (3,4S)-8-(3-{6-[(1Z)-1-(hydroxyimino)ethyl]-1,2,3,4-tetrahydro-1,5-naphthyridin-1-yl}-1H-pyrazolo[3,4-b]pyrazin-6-yl)-3-methyl-2-oxa-8-azaspiro[4.5]decan-4-amine] was tested. Which IC50 did it give?
A: < 1000 nM

Q: Which IC50 does the source give for C[C@@H]1OCC2(CCN(c3cnc4c(N5CCN(C6COC6)c6cc(C#N)ccc65)n[nH]c4n3)CC2)[C@@H]1N [Compound 398] here?
A: < 1000 nM

Q: For CNC(=O)CN1CCN(c2n[nH]c3nc(N4CCC5(CC4)CO[C@@H](C)[C@H]5N)cnc23)c2ccc(C#N)cc21 [Compound 399], which IC50 is on record?
A: < 1000 nM

Q: For C[C@@H]1OCC2(CCN(c3cnc4c(N5CCCc6c([C@H]7CCOC7)cccc65)n[nH]c4n3)CC2)[C@@H]1N [Compound 400], which IC50 is on record?
A: < 1000 nM

Q: With C[C@@H]1OCC2(CCN(c3cnc4c(N5CCCc6c([C@@H]7CCOC7)cccc65)n[nH]c4n3)CC2)[C@@H]1N [Compound 401] as the compound, how does the IC50 read?
A: < 1000 nM

Q: C[C@@H]1OCC2(CCN(c3cnc4c(N5CCN([C@H]6CCOC6)c6cc(C#N)ccc65)n[nH]c4n3)CC2)[C@@H]1N [Compound 402] was tested. Which IC50 did it give?
A: < 1000 nM

Q: With C[C@@H]1OCC2(CCN(c3cnc4c(N5CCN([C@@H]6CCOC6)c6cc(C#N)ccc65)n[nH]c4n3)CC2)[C@@H]1N [Compound 403] as the compound, how does the IC50 read?
A: < 1000 nM
